Test results: patent US10385057B2, “Pyrazole compounds and methods of making and using same” (Lundbeck La Jolla Research Center, Inc., priority 2015, dated 2019)

How the values were obtained:
[1] = target: T1, FAAH (Mus musculus, UniProt O08914); experiment: In vitro competitive activity-based protein profiling, mouse FAAH; type: biochemical; settings: for inhibition at 1 µM: read-out: FAAH % inh. 1 μM (mouse)
T1 construct: mouse brain membrane fraction or cell lysates for mouse assays; from tissue
T1 sequence (O08914 1-579): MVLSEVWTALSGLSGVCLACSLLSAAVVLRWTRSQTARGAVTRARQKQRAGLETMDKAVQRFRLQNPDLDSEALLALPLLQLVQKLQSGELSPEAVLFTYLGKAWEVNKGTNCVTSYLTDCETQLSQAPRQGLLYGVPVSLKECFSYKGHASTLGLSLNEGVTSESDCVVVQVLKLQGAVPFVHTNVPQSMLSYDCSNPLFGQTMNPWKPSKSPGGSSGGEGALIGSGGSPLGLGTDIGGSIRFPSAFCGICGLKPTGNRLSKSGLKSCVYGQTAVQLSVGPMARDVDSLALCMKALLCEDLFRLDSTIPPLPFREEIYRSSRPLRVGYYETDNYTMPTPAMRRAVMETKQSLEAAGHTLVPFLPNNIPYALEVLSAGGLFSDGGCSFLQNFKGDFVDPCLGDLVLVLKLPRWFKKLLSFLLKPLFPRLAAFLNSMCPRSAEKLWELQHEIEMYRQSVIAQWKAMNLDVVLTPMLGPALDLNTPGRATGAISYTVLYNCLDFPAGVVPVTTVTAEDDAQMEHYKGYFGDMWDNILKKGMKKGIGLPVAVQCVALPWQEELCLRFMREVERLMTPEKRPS
Outline: (§1)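 Activity measured as fluorescent gel-band intensity of MAGL and FAAH after SDS-PAGE. Before labelling with FP-Rh or HT-01 (30 min, 37 °C), proteomes at 1.0 mg/mL (mouse brain membrane or lysates; human prefrontal cortex or cell membranes) were exposed to varying inhibitor concentrations for 30 min at 37 °C.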

[2] = target: T2, MAGL (Mus musculus, UniProt O35678); experiment: In vitro competitive activity-based protein profiling, mouse MAGL; type: biochemical; settings: for inhibition at 1 µM: read-out: MAGL % inh. 1 μM (mouse)
T2 construct: mouse brain membrane fraction or cell lysates for mouse assays; from tissue
T2 sequence (O35678 1-303): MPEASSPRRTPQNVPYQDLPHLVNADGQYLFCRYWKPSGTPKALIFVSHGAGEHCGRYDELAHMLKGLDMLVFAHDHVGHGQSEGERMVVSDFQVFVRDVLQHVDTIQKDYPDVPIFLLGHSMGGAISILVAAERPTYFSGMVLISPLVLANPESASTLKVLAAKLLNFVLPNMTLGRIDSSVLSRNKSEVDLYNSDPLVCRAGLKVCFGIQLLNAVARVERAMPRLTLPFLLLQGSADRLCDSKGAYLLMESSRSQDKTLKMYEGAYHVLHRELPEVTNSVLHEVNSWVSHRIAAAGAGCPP
Outline: as §1

Compound | IC50 [1] [nM] | inhibition at 1 µM [1] [%] | IC50 [2] [nM] | inhibition at 1 µM [2] [%] | inhibition at 10 µM ([1]; 10 μM, read-out: FAAH % inh. at 10 μM (mouse)) [%] | inhibition at 10 µM ([2]; 10 μM, read-out: MAGL % inh. at 10 μM (mouse)) [%]
O=C(N1CCC2(CCN(Cc3cccc(F)c3)C2)C1)n1cc(C(F)(F)F)cn1 (stereo not drawn) [Example 169, (7-(3-fluorobenzyl)-2,7-diazaspiro[4.4]nonan-2-yl)(4-(trifluoromethyl)-1H-pyrazol-1-yl)methanone] | ≤ 100 | ≥ 75 | 100 to 1000 | ≥ 75 | – | –
Cc1cccc(CN2CCC3(CCN(C(=O)n4cc(C(F)(F)F)cn4)C3)C2)c1 (stereo not drawn) [Example 170, (7-(3-methylbenzyl)-2,7-diazaspiro[4.4]nonan-2-yl)(4-(trifluoromethyl)-1H-pyrazol-1-yl)methanone] | ≤ 100 | ≥ 75 | 100 to 1000 | ≥ 75 | – | –
COc1cccc(CN2CCC3(CCN(C(=O)n4cc(C(F)(F)F)cn4)C3)C2)c1 (stereo not drawn) [Example 171] | ≤ 100 | ≥ 75 | 100 to 1000 | ≥ 75 | – | –
O=C(N1CCC2(CCN(Cc3cccc(C(F)(F)F)c3)C2)C1)n1cc(C(F)(F)F)cn1 (stereo not drawn) [Example 172, (4-(trifluoromethyl)-1H-pyrazol-1-yl)(7-(3-(trifluoromethyl)benzyl)-2,7-diazaspiro[4.4]nonan-2-yl)methanone] | ≤ 100 | ≥ 75 | ≤ 100 | ≥ 75 | – | –
Cc1ccc(CN2CCC3(CCN(C(=O)n4cc(C(F)(F)F)cn4)C3)C2)cc1 (stereo not drawn) [Example 173, (7-(4-methylbenzyl)-2,7-diazaspiro[4.4]nonan-2-yl)(4-(trifluoromethyl)-1H-pyrazol-1-yl)methanone] | – | ≥ 75 | – | ≥ 75 | – | –
O=C(N1CCC2(CCN(Cc3cccc(N4CCCC4)c3)C2)C1)n1cc(C(F)(F)F)cn1 (stereo not drawn) [Example 174, (7-(3-(pyrrolidin-1-yl)benzyl)-2,7-diazaspiro[4.4]nonan-2-yl)(4-(trifluoromethyl)-1H-pyrazol-1-yl)methanone] | – | ≥ 75 | – | ≥ 75 | – | –
O=C(N1CCC2(CCN(Cc3cccc(N4CCOCC4)c3)C2)C1)n1cc(C(F)(F)F)cn1 (stereo not drawn) [Example 175, (7-(3-morpholinobenzyl)-2,7-diazaspiro[4.4]nonan-2-yl)(4-(trifluoromethyl)-1H-pyrazol-1-yl)methanone] | – | ≥ 75 | – | ≥ 75 | – | –
O=C(N1CCC2(CCN(Cc3ccccc3Cl)C2)C1)n1cc(C(F)(F)F)cn1 (stereo not drawn) [Example 176, (7-(2-chlorobenzyl)-2,7-diazaspiro[4.4]nonan-2-yl)(4-(trifluoromethyl)-1H-pyrazol-1-yl)methanone] | ≤ 100 | ≥ 75 | ≤ 100 | ≥ 75 | – | –
O=C(N1CCC2(CCN(Cc3ccccc3F)C2)C1)n1cc(C(F)(F)F)cn1 (stereo not drawn) [Example 177, (7-(2-fluorobenzyl)-2,7-diazaspiro[4.4]nonan-2-yl)(4-(trifluoromethyl)-1H-pyrazol-1-yl)methanone] | – | ≥ 75 | – | ≥ 75 | – | –
Cc1ccccc1CN1CCC2(CCN(C(=O)n3cc(C(F)(F)F)cn3)C2)C1 (stereo not drawn) [Example 178, (7-(2-methylbenzyl)-2,7-diazaspiro[4.4]nonan-2-yl)(4-(trifluoromethyl)-1H-pyrazol-1-yl)methanone] | 100 to 1000 | ≥ 75 | 100 to 1000 | ≥ 75 | – | –
COc1ccccc1CN1CCC2(CCN(C(=O)n3cc(C(F)(F)F)cn3)C2)C1 (stereo not drawn) [Example 179, (7-(2-methoxybenzyl)-2,7-diazaspiro[4.4]nonan-2-yl)(4-(trifluoromethyl)-1H-pyrazol-1-yl)methanone] | – | 50 to 75 | – | ≥ 75 | – | –
O=C(N1CCC2(CCN(Cc3ccccc3C(F)(F)F)C2)C1)n1cc(C(F)(F)F)cn1 (stereo not drawn) [Example 180, (4-(trifluoromethyl)-1H-pyrazol-1-yl)(7-(2-(trifluoromethyl)benzyl)-2,7-diazaspiro[4.4]nonan-2-yl)methanone] | – | ≥ 75 | – | ≥ 75 | – | –
O=C(N1CCC2(CCN(Cc3ccccc3N3CCCC3)C2)C1)n1cc(C(F)(F)F)cn1 (stereo not drawn) [Example 181, (7-(2-(pyrrolidin-1-yl)benzyl)-2,7-diazaspiro[4.4]nonan-2-yl)(4-(trifluoromethyl)-1H-pyrazol-1-yl)methanone] | – | 25 to 50 | – | ≥ 75 | – | –
O=C(N1CCC2(CCN(Cc3ccccc3N3CCOCC3)C2)C1)n1cc(C(F)(F)F)cn1 (stereo not drawn) [Example 182, 2-{[2-(morpholin-4-yl)phenyl]methyl}-7-{[4-(trifluoromethyl)-1H-pyrazol-1-yl]carbonyl}-2,7-diazaspiro[4.4]nonane] | – | 25 to 50 | – | ≥ 75 | – | –
CN(Cc1ccc(C(F)(F)F)cc1)[C@H]1C[C@@H]2CN(C(=O)n3cc(C(=O)N4CCOCC4)cn3)C[C@@H]2C1 [Example 184, (trans-5-(methyl(4-(trifluoromethyl)benzyl)amino)hexahydrocyclopenta[c]pyrrol-2(1H)-yl)(4-(morpholine-4-carbonyl)-1H-pyrazol-1-yl)methanone] | – | ≥ 75 | – | 50 to 75 | – | –
CN(Cc1ccc(C(F)(F)F)cc1)[C@H]1C[C@@H]2CN(C(=O)n3cc(C(=O)N4CCN(C5CC5)CC4)cn3)C[C@@H]2C1 [Example 186, (4-cyclopropylpiperazin-1-yl)(1-(trans-5-(methyl(4-(trifluoromethyl)benzyl)amino)octahydrocyclopenta[c]pyrrole-2-carbonyl)-1H-pyrazol-4-yl)methanone] | – | ≥ 75 | – | ≥ 75 | – | –
O=C(O)c1cnn(C(=O)N2CC3CN(Cc4cccc(Oc5ccccc5)c4)CC3C2)c1 (stereo not drawn) [Example 187, 1-(5-(3-phenoxybenzyl)octahydropyrrolo[3,4-c]pyrrole-2-carbonyl)-1H-pyrazole-4-carboxylic acid] | – | ≥ 75 | – | 50 to 75 | – | –
O=C(c1cnn(C(=O)N2CC3CN(Cc4ccc(Oc5ccc(Cl)cc5)cc4)CC3C2)c1)N1CCCC1 (stereo not drawn) [Example 189, (5-(4-(4-chlorophenoxy)benzyl)hexahydropyrrolo[3,4-c]pyrrol-2(1H)-yl)(4-(pyrrolidine-1-carbonyl)-1H-pyrazol-1-yl)methanone] | ≤ 100 | ≥ 75 | 100 to 1000 | 50 to 75 | – | –
CN(Cc1ccc(-c2cccnn2)cc1C(F)(F)F)[C@@H]1C[C@@H]2CN(C(=O)n3cc(C(N)=O)cn3)C[C@@H]2C1 [Example 191, 1-(cis-5-(methyl(4-(pyridazin-3-yl)-2-(trifluoromethyl)benzyl)amino)octahydrocyclopenta[c]pyrrole-2-carbonyl)-1H-pyrazole-4-carboxamide] | – | ≥ 75 | – | ≥ 75 | – | –
NC(=O)c1cnn(C(=O)N2CC[C@@]3(CCN(Cc4cc(Cl)cc(C(F)(F)F)c4)C3)C2)c1 [Example 192, (R)-1-(7-(3-chloro-5-(trifluoromethyl)benzyl)-2,7-diazaspiro[4.4]nonane-2-carbonyl)-1H-pyrazole-4-carboxamide] | ≤ 100 | – | ≤ 100 | – | – | –
NC(=O)c1cnn(C(=O)N2CC[C@]3(CCN(Cc4cc(Cl)cc(C(F)(F)F)c4)C3)C2)c1 [Example 193, (S)-1-(7-(3-chloro-5-(trifluoromethyl)benzyl)-2,7-diazaspiro[4.4]nonane-2-carbonyl)-1H-pyrazole-4-carboxamide] | ≤ 100 | – | ≤ 100 | – | – | –
NC(=O)c1cnn(C(=O)N2CC[C@@]3(CCN(Cc4ccc(N5CCOCC5)cc4C(F)(F)F)C3)C2)c1 [Example 194, (R)-1-(7-(4-morpholino-2-(trifluoromethyl)benzyl)-2,7-diazaspiro[4.4]nonane-2-carbonyl)-1H-pyrazole-4-carboxamide] | – | ≥ 75 | – | ≥ 75 | – | –
O=C(c1cnn(C(=O)N2CC3CN(Cc4cccc(Oc5ccc(Cl)cc5)c4)CC3C2)c1)N1CCOCC1 (stereo not drawn) [Example 199, (5-(3-(4-chlorophenoxy)benzyl)hexahydropyrrolo[3,4-c]pyrrol-2(1H)-yl)(4-(morpholine-4-carbonyl)-1H-pyrazol-1-yl)methanone] | ≤ 100 | ≥ 75 | 1000 to 10000 | 25 to 50 | – | –
O=C(c1cnn(C(=O)N2CC3CN(Cc4ccc(Oc5ccc(Cl)cc5)cc4)CC3C2)c1)N1CCOCC1 (stereo not drawn) [Example 200, (5-(4-(4-chlorophenoxy)benzyl)hexahydropyrrolo[3,4-c]pyrrol-2(1H)-yl)(4-(morpholine-4-carbonyl)-1H-pyrazol-1-yl)methanone] | – | ≥ 75 | – | 0 to 25 | 100 | 50
